Earlier results as cited in patent publication US4661473A, “Renin inhibitors containing peptide isosteres” (Merck & Co., Inc., priority 1984, dated 1987).

Tested on: hog renin
Conditions: after the injection of hog renin into nephrectomized rats; Gross et al. 1971

Pepstatin
blood pressure in vivo: reduce blood pressure in vivo
